Test results from PubChem BioAssay (NCI).
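Where inhibition never reached the appropriate level, the endpoint shown equals the highest concentration tested. Otherwise, values were interpolated linearly from a five-concentration, 48-hour dose response in 96-well plates. The concentration for 50% growth inhibition is given as GI50. TGI marks complete inhibition of growth.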

What was measured:
Experiment in all cases: inhibition of tumour cell growth, NCI panel, 48 h
BT-549 breast = tested on: BT-549 breast
RPMI-8226 leukemia = tested on: RPMI-8226 leukemia
A549 NSCLC = tested on: A549 NSCLC
NCI-H460 lung = tested on: NCI-H460 lung
UACC-257 melanoma = tested on: UACC-257 melanoma
SN12C renal = tested on: SN12C renal
HS 578T breast = tested on: HS 578T breast
TK-10 renal = tested on: TK-10 renal
NCI-H226 lung = tested on: NCI-H226 lung
UO-31 renal = tested on: UO-31 renal
SNB-19 CNS = tested on: SNB-19 CNS
HCT-116 colon = tested on: HCT-116 colon
A498 renal = tested on: A498 renal
IGROV1 ovarian = tested on: IGROV1 ovarian
SK-MEL-5 melanoma = tested on: SK-MEL-5 melanoma
MOLT-4 leukemia = tested on: MOLT-4 leukemia
DU-145 prostate = tested on: DU-145 prostate
M14 melanoma = tested on: M14 melanoma
HL-60(TB) leukemia = tested on: HL-60(TB) leukemia
NCI-H23 lung = tested on: NCI-H23 lung
RXF 393 renal = tested on: RXF 393 renal
CCRF-CEM leukemia = tested on: CCRF-CEM leukemia
SNB-75 CNS = tested on: SNB-75 CNS
HOP-62 NSCLC = tested on: HOP-62 NSCLC
HOP-92 NSCLC = tested on: HOP-92 NSCLC
OVCAR-8 ovarian = tested on: OVCAR-8 ovarian
NCI-H522 lung = tested on: NCI-H522 lung
UACC-62 melanoma = tested on: UACC-62 melanoma
MCF7 breast = tested on: MCF7 breast
SR leukemia = tested on: SR leukemia
HT29 colon = tested on: HT29 colon
K-562 leukemia = tested on: K-562 leukemia
SK-MEL-2 melanoma = tested on: SK-MEL-2 melanoma
NCI/ADR-RES ovarian = tested on: NCI/ADR-RES ovarian
SW-620 colon = tested on: SW-620 colon
EKVX NSCLC = tested on: EKVX NSCLC
SK-OV-3 ovarian = tested on: SK-OV-3 ovarian
ACHN renal = tested on: ACHN renal
MDA-MB-435 = tested on: MDA-MB-435
HCT-15 colon = tested on: HCT-15 colon
SF-539 CNS = tested on: SF-539 CNS
CAKI-1 renal = tested on: CAKI-1 renal
COLO 205 colon = tested on: COLO 205 colon
786-0 renal = tested on: 786-0 renal
OVCAR-3 ovarian = tested on: OVCAR-3 ovarian
KM12 colon = tested on: KM12 colon
OVCAR-4 ovarian = tested on: OVCAR-4 ovarian
T-47D breast = tested on: T-47D breast
SF-268 CNS = tested on: SF-268 CNS
LOX IMVI melanoma = tested on: LOX IMVI melanoma
U251 CNS = tested on: U251 CNS
PC-3 prostate = tested on: PC-3 prostate
MALME-3M melanoma = tested on: MALME-3M melanoma
SK-MEL-28 melanoma = tested on: SK-MEL-28 melanoma
HCC-2998 colon = tested on: HCC-2998 colon
MDA-MB-231 breast = tested on: MDA-MB-231 breast
SF-295 CNS = tested on: SF-295 CNS
OVCAR-5 ovarian = tested on: OVCAR-5 ovarian

**Q.** What does the source list for `CN1CCN(Cc2ccc(NC(=O)c3nc4ccc5[nH]ncc5c4c4c3CCC4)cc2C(F)(F)F)CC1`?
**A.** GI50 (BT-549 breast): 7.61 µM; TGI (BT-549 breast): 14.9 µM; GI50 (RPMI-8226 leukemia): 1140 nM; TGI (RPMI-8226 leukemia): 2820 nM; GI50 (A549 NSCLC): 920 nM; TGI (A549 NSCLC): 1830 nM; GI50 (NCI-H460 lung): 926 nM; TGI (NCI-H460 lung): 1730 nM; GI50 (UACC-257 melanoma): 990 nM; TGI (UACC-257 melanoma): 2010 nM; GI50 (SN12C renal): 873 nM; TGI (SN12C renal): 1640 nM; GI50 (HS 578T breast): 833 nM; TGI (HS 578T breast): 1650 nM; GI50 (TK-10 renal): 884 nM; TGI (TK-10 renal): 1650 nM; GI50 (NCI-H226 lung): 2230 nM; TGI (NCI-H226 lung): 11.3 µM; GI50 (UO-31 renal): 728 nM; TGI (UO-31 renal): 1380 nM; GI50 (SNB-19 CNS): 976 nM; TGI (SNB-19 CNS): 2110 nM; GI50 (HCT-116 colon): 856 nM; TGI (HCT-116 colon): 1610 nM; GI50 (A498 renal): 6.62 µM; TGI (A498 renal): 13.4 µM; GI50 (IGROV1 ovarian): 907 nM; TGI (IGROV1 ovarian): 1700 nM; GI50 (SK-MEL-5 melanoma): 7.47 µM; TGI (SK-MEL-5 melanoma): 14.1 µM; GI50 (MOLT-4 leukemia): 1100 nM; TGI (MOLT-4 leukemia): 2580 nM; GI50 (DU-145 prostate): 944 nM; TGI (DU-145 prostate): 1760 nM; GI50 (M14 melanoma): 934 nM; TGI (M14 melanoma): 1760 nM; GI50 (HL-60(TB) leukemia): 1060 nM; TGI (HL-60(TB) leukemia): 2280 nM; GI50 (NCI-H23 lung): 1070 nM; TGI (NCI-H23 lung): 3.22 µM; GI50 (RXF 393 renal): 1190 nM; TGI (RXF 393 renal): 4.37 µM; GI50 (CCRF-CEM leukemia): 1250 nM; TGI (CCRF-CEM leukemia): 3.64 µM; GI50 (SNB-75 CNS): 4.81 µM; TGI (SNB-75 CNS): 10.8 µM; GI50 (HOP-62 NSCLC): 867 nM; TGI (HOP-62 NSCLC): 1710 nM; GI50 (HOP-92 NSCLC): 3.53 µM; TGI (HOP-92 NSCLC): 10.6 µM; GI50 (OVCAR-8 ovarian): 1050 nM; TGI (OVCAR-8 ovarian): 2220 nM; GI50 (NCI-H522 lung): 981 nM; TGI (NCI-H522 lung): 2310 nM; GI50 (UACC-62 melanoma): 1880 nM; TGI (UACC-62 melanoma): 6.94 µM; GI50 (MCF7 breast): 906 nM; TGI (MCF7 breast): 1820 nM; GI50 (SR leukemia): 1100 nM; TGI (SR leukemia): 2680 nM; GI50 (HT29 colon): 1020 nM; TGI (HT29 colon): 2080 nM; GI50 (K-562 leukemia): 978 nM; TGI (K-562 leukemia): 2390 nM; GI50 (SK-MEL-2 melanoma): 1160 nM; TGI (SK-MEL-2 melanoma): 2490 nM; GI50 (NCI/ADR-RES ovarian): 931 nM; TGI (NCI/ADR-RES ovarian): 2140 nM; GI50 (SW-620 colon): 975 nM; TGI (SW-620 colon): 2030 nM; GI50 (EKVX NSCLC): 1260 nM; TGI (EKVX NSCLC): 4.84 µM; GI50 (SK-OV-3 ovarian): 8.28 µM; TGI (SK-OV-3 ovarian): 15.5 µM; GI50 (ACHN renal): 861 nM; TGI (ACHN renal): 1550 nM; GI50 (MDA-MB-435): 926 nM; TGI (MDA-MB-435): 1710 nM; GI50 (HCT-15 colon): 870 nM; TGI (HCT-15 colon): 1750 nM; GI50 (SF-539 CNS): 879 nM; TGI (SF-539 CNS): 1580 nM; GI50 (CAKI-1 renal): 815 nM; TGI (CAKI-1 renal): 1560 nM; GI50 (COLO 205 colon): 7.27 µM; TGI (COLO 205 colon): 14.7 µM; GI50 (786-0 renal): 859 nM; TGI (786-0 renal): 1560 nM; GI50 (OVCAR-3 ovarian): 904 nM; TGI (OVCAR-3 ovarian): 1680 nM; GI50 (KM12 colon): 957 nM; TGI (KM12 colon): 1910 nM; GI50 (OVCAR-4 ovarian): 911 nM; TGI (OVCAR-4 ovarian): 1980 nM; GI50 (T-47D breast): 1070 nM; TGI (T-47D breast): 2840 nM; GI50 (SF-268 CNS): 7.97 µM; TGI (SF-268 CNS): 16.5 µM; GI50 (LOX IMVI melanoma): 832 nM; TGI (LOX IMVI melanoma): 1540 nM; GI50 (U251 CNS): 875 nM; TGI (U251 CNS): 1600 nM; GI50 (PC-3 prostate): 926 nM; TGI (PC-3 prostate): 2120 nM; GI50 (MALME-3M melanoma): 800 nM; TGI (MALME-3M melanoma): 1520 nM; GI50 (SK-MEL-28 melanoma): 899 nM; TGI (SK-MEL-28 melanoma): 1620 nM; GI50 (HCC-2998 colon): 830 nM; TGI (HCC-2998 colon): 1650 nM; GI50 (MDA-MB-231 breast): 924 nM; TGI (MDA-MB-231 breast): 1680 nM; GI50 (SF-295 CNS): 6.97 µM; TGI (SF-295 CNS): 13.8 µM; GI50 (OVCAR-5 ovarian): 994 nM; TGI (OVCAR-5 ovarian): 2410 nM
